Like-named read-outs stand apart in the source and are kept apart here.

In series [1] the target is T1, IDE (Homo sapiens (Human), UniProt P14735). Kind of series: In vitro selection of DNA-templated macrocycle library against immobilized IDE. It counts as binding. The procedure:
Selections of the DNA-templated library were performed as described previously.^9 20 μg of IDE was immobilized on 30 μL of Dynabeads His-Tag Isolation and Pulldown (Invitrogen) magnetic particles according to the manufacturer's instructions. Elution of captured DNA-library members was performed by incubating the protein-loaded particles with 200 mM imidazole. Prior to PCR amplification, imidazole was removed from the eluted samples by gel filtration using Princeton Separations Sephadex minicolumns.
Insulin-degrading enzyme (IDE) protein was obtained in its purified form with a poly-histidine tag and immobilized on magnetic particles coated with cobalt. After incubation with the DNA-templated library, non-binding library members were washed away with buffer, and protein-library member complexes were eluted from resin with imidazole (FIG. 1). DNA-templated library members enriched after target selection were PCR amplified with target-specific barcoded primers that appended adaptors required for Illumina high-throughput DNA sequencing. We performed two independent selection replicates with IDE and three independent selections against empty resin as negative control selections. These five barcoded selection PCR amplicons were pooled in equimolar quantities and submitted for Illumina high-throughput DNA sequencing. High-throughput sequencing yielded 19 million sequence reads—an average of ˜3.8 million sequence reads per selection.
After one round of in vitro selection, we identified DNA sequences corresponding to macrocycles A12-B8-C11-D5 (3), A12-B8-C5-D5 (5), A12-B8-C6-D5 (6) and A12-B8-C8-D5 (2) enriched between 4- to 14-fold against IDE (FIG. 2a, IDE selection 1); these same macrocycles were also enriched 3- to 6-fold in a replicate IDE selection (FIG. 2a, IDE selection 2).

In series [2] the target is T1, IDE. Put plainly: In vitro protease assay with IDE (cleavage of fluorophore-quencher substrate peptide). The series is classed as biochemical. The conditions noted are these: for potency of trans-olefin isomer relative to corresponding cis-olefin isomer: trans vs cis isomer, IDE inhibition; for activity / potency against IDE (in words): derivatives compared with 6b. The procedure: Protease assays with IDE and neprilysin were performed using Mca-RPPGFSAFK(Dnp)-OH substrate peptide (R&D Systems, SEQ ID NO: 6) and purified recombinant human IDE and recombinant human neprilysin (R&D Systems) according to the manufacturer's instructions. For IDE, 2 μL of small molecule dissolved in DMSO was combined with 48 μL 0.2 μg/mL IDE in IDE assay buffer (50 mM Tris, 1 M NaCl, pH 7.5). 50 μL of 20 μM substrate peptide in IDE assay buffer was then added to initiate the reaction, and peptide cleavage was monitored on a fluorescent plate reader (excitation=320 nm; emission=405 nm) for 5 minutes. The above protocol was also used for assaying neprilysin activity, substituting the neprilysin assay buffer (50 mM Tris, 0.05% Brij-35, pH 9.0).
Compounds were synthesized as described previously;^9 in most cases the macrocycle synthesis yielded two isomers corresponding to the cis and trans olefins generated after macrocyclization. Macrocycles were assayed for IDE inhibition by monitoring cleavage of a substrate peptide^13 containing a fluorophore-quencher pair such that cleavage of the model substrate results in increased fluorescence.

A further series addresses plasma IDE activity (Mus musculus (Mouse), UniProt Q9JHR7). Put plainly: Plasma IDE activity in mice injected with inhibitor. It counts as in vivo. The conditions noted are these: 60 min after 10 mg/kg, 20 mg/kg, or 40 mg/kg i.p. injection, vs vehicle. The procedure: Finally, we compared plasma IDE activity in mice injected with 6b with plasma IDE activity in control mice injected with vehicle alone (18:1:1, saline:DMSO:Tween-80). Plasma IDE activity 60 min after 10 mg/kg, 20 mg/kg, or 40 mg/kg i.p. injection of 6b was inhibited by ≧90% (FIG. 9).

Series [3] is described as follows: Biodistribution assay (LC-MS of brain, pancreas, plasma after IP injection). It counts as in vivo, mouse. To be noted: mice, 45 minutes after intraperitoneal injection. The procedure:
Macrocycles were diluted to 0.1 mg/mL or 1 mg/mL in PBS and IP-injected into a mouse to produce a concentration of 1 mg/kg or 10 mg/kg, respectively. After 45 minutes, organs were harvested, and the small-molecule fractions were extracted into a 2:1:1 mixture of chloroform:methanol:water. Samples were evaporated under a stream of nitrogen, resuspended in 100 μL of chloroform and subjected to LC-MS analysis.
The tissue distribution of enriched macrocycles after i.p. injection was examined. […] Briefly, compounds were injected at different concentrations intraperitoneally into mice, and plasma, brain, and pancreas were harvested after 45 minutes. Vehicle-only injections were performed as negative controls. We determined the relative amount of macrocycle present by extracting the organs with organic solvents and quantifying the amount of compound present by LC-MS analysis.

A further series has as its target recombinant human THOP1 (Homo sapiens (Human), UniProt P52888). Kind of series: In vitro protease assay with THOP1. The series is classed as biochemical. As for the experimental part: (§1) Protease assays with THOP1 and NLN were performed using MCA-Pro-Leu-Gly-Pro-D-Lys(DNP)-OH (Bachem, SEQ ID NO: 7) and purified recombinant human THOP1 and NLN (R&D Systems) according to the manufacturer's instructions.

In series [4] the target is recombinant human neprilysin (Homo sapiens (Human), UniProt P08473). Put plainly: In vitro protease assay with neprilysin. The conditions noted are these: even when assayed at 100 μM.
Series [5] in a line: Preliminary pharmacokinetics after i.p. injection (LC-MS quantitation in plasma). To be noted: mice, 20 mg/kg i.p.
Series [6] deals with T1, IDE. Kind of series: Yonetani-Theorell double inhibition of IDE. The series is classed as biochemical. To be noted: varying concentrations of both 6b and Ii1. An excerpt: The lack of obvious structural relationship between 6b and known IDE substrates, together with its excellent selectivity profile, raised the possibility that 6b may inhibit IDE by binding an allosteric site, rather than the active site. To test this possibility, we assayed IDE in vitro in the presence of varying concentrations of both 6b and Ii1.

Another series has as its target recombinant human NLN (Homo sapiens (Human), UniProt Q9BYT8). Put plainly: In vitro protease assay with NLN. The series is classed as biochemical. The procedure: as §1
Another series concerns trypsin. Put plainly: Trypsin activity assay (Z-Arg-AMC substrate). To be noted: even when assayed at 100 μM.
A short description of a further series: Solubility. It counts as physicochemical.
Where [7] appears, read: fluorophore-quencher model peptide.

T1 sequence (P14735 whole entry): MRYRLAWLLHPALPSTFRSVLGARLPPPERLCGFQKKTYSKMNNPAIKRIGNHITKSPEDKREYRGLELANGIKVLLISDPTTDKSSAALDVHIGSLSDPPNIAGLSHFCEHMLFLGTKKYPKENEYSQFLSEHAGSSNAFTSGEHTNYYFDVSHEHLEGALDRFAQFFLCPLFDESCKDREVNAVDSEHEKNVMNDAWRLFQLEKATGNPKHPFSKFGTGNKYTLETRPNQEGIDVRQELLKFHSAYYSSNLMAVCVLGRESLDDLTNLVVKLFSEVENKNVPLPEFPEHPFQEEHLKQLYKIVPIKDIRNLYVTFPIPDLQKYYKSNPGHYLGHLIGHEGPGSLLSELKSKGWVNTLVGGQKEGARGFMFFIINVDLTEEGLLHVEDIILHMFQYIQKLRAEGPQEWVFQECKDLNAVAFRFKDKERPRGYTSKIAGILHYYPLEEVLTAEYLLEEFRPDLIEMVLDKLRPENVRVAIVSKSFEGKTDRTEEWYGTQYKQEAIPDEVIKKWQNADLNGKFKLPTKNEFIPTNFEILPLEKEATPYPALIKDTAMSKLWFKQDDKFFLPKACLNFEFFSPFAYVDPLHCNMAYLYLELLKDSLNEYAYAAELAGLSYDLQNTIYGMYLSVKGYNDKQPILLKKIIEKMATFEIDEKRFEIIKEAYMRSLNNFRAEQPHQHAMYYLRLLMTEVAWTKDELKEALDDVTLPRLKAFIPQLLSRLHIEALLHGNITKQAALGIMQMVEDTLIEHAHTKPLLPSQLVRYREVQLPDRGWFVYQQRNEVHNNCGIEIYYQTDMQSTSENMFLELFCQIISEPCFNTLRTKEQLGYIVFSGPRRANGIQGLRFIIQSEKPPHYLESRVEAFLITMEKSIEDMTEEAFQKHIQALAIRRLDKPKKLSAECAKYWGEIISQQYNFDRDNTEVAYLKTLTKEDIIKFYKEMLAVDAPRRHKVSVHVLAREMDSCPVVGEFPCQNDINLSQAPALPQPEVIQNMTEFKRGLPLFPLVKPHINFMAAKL
recombinant human THOP1, sequence (P52888 whole entry): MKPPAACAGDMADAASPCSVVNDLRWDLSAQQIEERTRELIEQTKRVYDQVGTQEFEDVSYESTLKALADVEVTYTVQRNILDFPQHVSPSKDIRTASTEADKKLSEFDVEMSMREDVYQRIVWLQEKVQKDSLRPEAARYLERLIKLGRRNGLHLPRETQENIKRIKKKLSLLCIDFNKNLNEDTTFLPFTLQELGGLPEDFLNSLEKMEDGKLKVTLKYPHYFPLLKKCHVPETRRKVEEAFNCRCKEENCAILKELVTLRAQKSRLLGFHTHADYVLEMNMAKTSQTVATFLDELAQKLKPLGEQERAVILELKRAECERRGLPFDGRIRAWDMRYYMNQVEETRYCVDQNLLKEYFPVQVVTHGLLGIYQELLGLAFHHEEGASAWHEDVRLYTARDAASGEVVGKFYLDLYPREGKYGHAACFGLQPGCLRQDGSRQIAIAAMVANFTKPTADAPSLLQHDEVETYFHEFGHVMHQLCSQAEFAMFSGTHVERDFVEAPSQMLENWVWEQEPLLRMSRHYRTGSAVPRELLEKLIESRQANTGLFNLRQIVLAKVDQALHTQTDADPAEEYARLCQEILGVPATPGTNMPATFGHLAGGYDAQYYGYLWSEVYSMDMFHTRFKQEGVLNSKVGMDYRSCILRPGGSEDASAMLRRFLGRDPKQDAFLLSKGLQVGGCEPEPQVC
recombinant human NLN, sequence (Q9BYT8 38-704): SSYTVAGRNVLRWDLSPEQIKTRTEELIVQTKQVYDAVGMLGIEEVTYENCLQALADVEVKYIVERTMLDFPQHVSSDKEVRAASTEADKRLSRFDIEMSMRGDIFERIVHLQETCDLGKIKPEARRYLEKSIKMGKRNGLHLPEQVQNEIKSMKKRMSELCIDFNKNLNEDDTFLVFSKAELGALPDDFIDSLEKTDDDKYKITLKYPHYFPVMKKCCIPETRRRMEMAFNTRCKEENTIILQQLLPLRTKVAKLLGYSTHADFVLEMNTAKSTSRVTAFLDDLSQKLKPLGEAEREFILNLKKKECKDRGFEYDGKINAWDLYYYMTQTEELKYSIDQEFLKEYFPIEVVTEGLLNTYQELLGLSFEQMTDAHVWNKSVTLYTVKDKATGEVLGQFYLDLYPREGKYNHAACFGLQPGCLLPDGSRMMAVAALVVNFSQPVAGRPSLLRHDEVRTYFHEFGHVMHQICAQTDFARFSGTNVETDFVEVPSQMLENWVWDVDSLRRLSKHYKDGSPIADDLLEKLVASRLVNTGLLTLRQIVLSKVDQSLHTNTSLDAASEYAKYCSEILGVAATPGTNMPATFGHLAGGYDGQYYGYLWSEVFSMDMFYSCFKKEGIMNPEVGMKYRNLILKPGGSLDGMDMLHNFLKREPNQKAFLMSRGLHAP
plasma IDE activity, sequence (Q9JHR7 other isoform, or with tags, fused parts or gaps): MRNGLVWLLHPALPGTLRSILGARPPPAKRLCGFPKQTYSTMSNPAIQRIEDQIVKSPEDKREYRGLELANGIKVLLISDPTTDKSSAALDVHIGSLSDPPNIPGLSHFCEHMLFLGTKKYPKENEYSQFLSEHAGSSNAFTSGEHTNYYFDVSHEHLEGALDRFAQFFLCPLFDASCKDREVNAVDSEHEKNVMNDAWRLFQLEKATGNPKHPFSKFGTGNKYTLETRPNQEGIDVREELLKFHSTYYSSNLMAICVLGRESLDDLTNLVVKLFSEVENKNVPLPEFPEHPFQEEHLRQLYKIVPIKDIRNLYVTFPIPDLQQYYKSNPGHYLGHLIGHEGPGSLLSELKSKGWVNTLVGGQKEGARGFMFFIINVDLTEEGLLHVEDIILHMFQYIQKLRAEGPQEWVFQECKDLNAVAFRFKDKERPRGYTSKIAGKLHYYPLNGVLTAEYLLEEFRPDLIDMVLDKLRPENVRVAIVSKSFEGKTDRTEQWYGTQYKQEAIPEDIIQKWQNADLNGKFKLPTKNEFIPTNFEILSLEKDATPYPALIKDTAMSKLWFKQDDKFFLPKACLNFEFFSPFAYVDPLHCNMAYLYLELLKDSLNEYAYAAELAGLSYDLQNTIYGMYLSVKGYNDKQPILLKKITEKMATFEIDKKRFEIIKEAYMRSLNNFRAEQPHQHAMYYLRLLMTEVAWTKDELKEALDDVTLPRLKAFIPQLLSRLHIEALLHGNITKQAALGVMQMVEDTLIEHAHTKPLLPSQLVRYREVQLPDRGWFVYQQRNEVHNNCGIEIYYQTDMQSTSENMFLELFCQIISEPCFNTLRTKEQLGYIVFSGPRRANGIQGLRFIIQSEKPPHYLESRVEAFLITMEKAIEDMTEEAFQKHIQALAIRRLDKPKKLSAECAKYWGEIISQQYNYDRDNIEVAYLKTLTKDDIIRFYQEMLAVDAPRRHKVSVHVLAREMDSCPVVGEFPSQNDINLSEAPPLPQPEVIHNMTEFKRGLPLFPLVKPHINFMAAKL
recombinant human neprilysin, sequence (P08473 whole entry): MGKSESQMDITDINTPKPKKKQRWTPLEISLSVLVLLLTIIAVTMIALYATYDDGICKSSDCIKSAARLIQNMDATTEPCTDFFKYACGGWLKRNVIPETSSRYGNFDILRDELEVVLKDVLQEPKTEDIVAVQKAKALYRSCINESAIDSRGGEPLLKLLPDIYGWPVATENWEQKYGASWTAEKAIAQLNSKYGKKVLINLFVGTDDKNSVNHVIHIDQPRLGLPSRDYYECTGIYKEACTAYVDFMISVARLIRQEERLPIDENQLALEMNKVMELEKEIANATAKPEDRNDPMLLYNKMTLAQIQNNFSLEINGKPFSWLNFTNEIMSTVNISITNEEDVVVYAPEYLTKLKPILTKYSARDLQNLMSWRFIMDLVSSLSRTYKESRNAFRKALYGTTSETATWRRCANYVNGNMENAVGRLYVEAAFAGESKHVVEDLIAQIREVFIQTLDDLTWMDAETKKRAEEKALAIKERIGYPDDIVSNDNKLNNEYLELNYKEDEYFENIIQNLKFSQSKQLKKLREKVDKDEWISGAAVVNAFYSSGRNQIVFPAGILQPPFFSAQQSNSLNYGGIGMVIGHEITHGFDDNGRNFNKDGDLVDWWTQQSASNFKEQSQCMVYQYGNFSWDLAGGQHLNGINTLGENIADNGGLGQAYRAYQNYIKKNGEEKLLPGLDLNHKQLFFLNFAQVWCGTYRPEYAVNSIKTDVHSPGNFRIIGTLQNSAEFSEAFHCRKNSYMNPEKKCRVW

For the molecule `NC(=O)C1CCCCNC(=O)C(Cc2ccc(C(=O)c3ccccc3)cc2)NC(=O)C(CC2CCCCC2)NC(=O)CC(O)C(CC2CCCCC2)NC(=O)C=CC(=O)N1` (mixture of isomers) [Compound 3], the “enrichment against IDE” value at IDE [1] (IDE selection 1, one round) is recorded as 4- to 14 fold; at IDE [1] (replicate IDE selection 2), 3- to 6 fold. Further, the “potency of trans-olefin isomer relative to corresponding cis-olefin isomer” value at IDE [2] is given as > 10 fold.

Regarding `NC(=O)C1CCCCNC(=O)CNC(=O)C(CC2CCCCC2)NC(=O)CC(O)C(CC2CCCCC2)NC(=O)C=CC(=O)N1` (mixture of isomers) [Compound 4], at IDE [1], the “enrichment against IDE (in words)” value was “less strongly enriched”. Further, the “activity / potency against IDE (in words)” value (“activity / potency” for short) on IDE [2] is “inactive”.

For the molecule `NC(=O)C1CCCCNC(=O)C(Cc2ccc(C(=O)c3ccccc3)cc2)NC(=O)C(CC2CCCCC2)NC(=O)C(CC2CC2)NC(=O)C=CC(=O)N1` (mixture of isomers) [Compound 5], the “enrichment against IDE” value is 4- to 14 fold on IDE [1] (IDE selection 1, one round) and 3- to 6 fold on IDE [1] (replicate IDE selection 2). For the same molecule, the “potency of trans-olefin isomer relative to corresponding cis-olefin isomer” value on IDE [2] is on record as > 10 fold.

Consider `NC(=O)CCC1NC(=O)C=CC(=O)NC(C(N)=O)CCCCNC(=O)C(Cc2ccc(C(=O)c3ccccc3)cc2)NC(=O)C(CC2CCCCC2)NC1=O` (mixture of isomers) [Compound 6], for which the “enrichment against IDE” value at IDE [1] (IDE selection 1, one round) is 4- to 14 fold; on IDE [1] (replicate IDE selection 2) it was 3- to 6 fold. In addition, the “potency of trans-olefin isomer relative to corresponding cis-olefin isomer” value at IDE [2] was > 10 fold.

One may read the IC50 as the midpoint of a concentration-inhibition curve. As to `NC(=O)CCC1NC(=O)C=CC(=O)NC(C(N)=O)CCCCNC(=O)CNC(=O)C(CC2CCCCC2)NC1=O` (centres unmarked) [Compound 1], the “enrichment against IDE (in words)” value at IDE [1] is “less strongly enriched”. In addition, the “activity / potency” value at IDE [2] is “inactive”. On IDE [2] (setting [7]), the IC50 was > 100 µM.

For the molecule `N=C(N)NCCCC1NC(=O)C=CC(=O)NC(C(N)=O)CCCCNC(=O)C(Cc2ccc(C(=O)c3ccccc3)cc2)NC(=O)C(CC2CCCCC2)NC1=O` (centres unmarked) [Compound 2], the “enrichment against IDE” value on IDE [1] (IDE selection 1, one round) was 4- to 14 fold; at IDE [1] (replicate IDE selection 2), 3- to 6 fold. At IDE [2] (setting [7]), this molecule displayed an IC50 of 10 µM.

Turning to `NC(=O)C1CCCCNC(=O)C(Cc2ccc(C(=O)c3ccccc3)cc2)NC(=O)C(CC2CCCCC2)NC(=O)CC(O)C(CC2CCCCC2)NC(=O)C=CC(=O)N1` (centres unmarked) [Compound 3a], the IC50 at IDE [2] (setting [7]) was > 20 µM.

On IDE [2] (setting [7]), `NC(=O)C1CCCCNC(=O)C(Cc2ccc(C(=O)c3ccccc3)cc2)NC(=O)C(CC2CCCCC2)NC(=O)CC(O)C(CC2CCCCC2)NC(=O)C=CC(=O)N1` (centres unmarked) [Compound 3b] had an IC50 of 1.5 µM.

Regarding `NC(=O)C1CCCCNC(=O)CNC(=O)C(CC2CCCCC2)NC(=O)CC(O)C(CC2CCCCC2)NC(=O)C=CC(=O)N1` (centres unmarked) [Compound 4a], the IC50 against IDE [2] (setting [7]) is > 100 µM.

For the molecule `NC(=O)C1CCCCNC(=O)C(Cc2ccc(C(=O)c3ccccc3)cc2)NC(=O)C(CC2CCCCC2)NC(=O)C(CC2CC2)NC(=O)C=CC(=O)N1` (centres unmarked) [Compound 5a], the IC50 at IDE [2] (setting [7]) is > 20 µM.

`NC(=O)C1CCCCNC(=O)C(Cc2ccc(C(=O)c3ccccc3)cc2)NC(=O)C(CC2CCCCC2)NC(=O)C(CC2CC2)NC(=O)C=CC(=O)N1` (centres unmarked) [Compound 5b]: the IC50 against IDE [2] (setting [7]) came to 1 µM.

In the case of `NC(=O)CCC1NC(=O)C=CC(=O)NC(C(N)=O)CCCCNC(=O)C(Cc2ccc(C(=O)c3ccccc3)cc2)NC(=O)C(CC2CCCCC2)NC1=O` (centres unmarked) [Compound 6a], the IC50 against IDE [2] (setting [7]) was 5.6 µM.

Consider `NC(=O)CCC1NC(=O)C=CC(=O)NC(C(N)=O)CCCCNC(=O)C(Cc2ccc(C(=O)c3ccccc3)cc2)NC(=O)C(CC2CCCCC2)NC1=O` (centres unmarked) [Compound 6b], for which the “inhibition of plasma IDE activity” value at plasma IDE activity is listed as ≥ 90%. Moreover, in series [3], the detection in brain entry is “none of the three compounds could be detected”, the detection in pancreas result is “could be detected”, the detection in plasma result is “could be detected” and the “macrocycle concentration in plasma (comparison)” value is “comparable”. The “activation of THOP1” value at recombinant human THOP1 (at higher concentrations) is on record as “Slight activation”. On recombinant human THOP1 (even when assayed at 100 μM), the “inhibition of thimet oligopeptidase (THOP1)” value is “failed to demonstrate any significant inhibition”. Besides, the “inhibition of neprilysin (NEP)” value in [4] was “failed to demonstrate any significant inhibition”. In series [5], the “time of peak blood concentration” value was determined as 60 min and the tolerability of injections entry was “well tolerated”. Moreover, in series [5] (18:1:1 saline:DMSO:Tween-80), the peak blood concentration came out at 0.2 µM. For the same molecule, 0.14 µM corresponded to half-maximal inhibition against IDE [2] (IC50). Besides, the IC50 against IDE [2] (setting [7]) came to 0.06 µM. The “binding site relative to Ii1 (double inhibition plot)” value on IDE [6] was “binding sites of Ii1 and 6b are distinct”. The “activation of NLN” value at recombinant human NLN (at higher concentrations) is given as “Slight activation”. Also, the “inhibition of neurolysin (NLN)” value on recombinant human NLN (even when assayed at 100 μM) was “failed to demonstrate any significant inhibition”. Besides, the inhibition of trypsin entry in the series on trypsin is “failed to demonstrate any significant inhibition”.

On to `NCCCC[C@@H]1NC(=O)/C=C/C(=O)NC(C(N)=O)CCCCNC(=O)[C@@H](Cc2ccc(C(=O)c3ccccc3)cc2)NC(=O)[C@H](CC2CCCCC2)NC1=O` (some centres unmarked) [Compound 20], for which the “solubility in water or saline” value in “Solubility” is < 0.1 M. Moreover, the “activity / potency” value at IDE [2] is recorded as “equipotent”.

In the case of `N=C(N)NCCC[C@H](NC(=O)[C@@H](CC(=O)NO)Cc1ccc2ccccc2c1)C(=O)N[C@@H](Cc1c[nH]c2ccccc12)C(=O)N[C@@H](CCC(=O)O)C(N)=O` [Ii1, reference compound], the IC50 was determined as 6 nM at recombinant human THOP1 and 150 nM at recombinant human NLN.

The values are drawn from patent US9243038B2, “Macrocyclic insulin-degrading enzyme (IDE) inhibitors and uses thereof” (President and Fellows of Harvard College, priority 2011, dated 2016).
